Data on one compound can be found in PMC6934184, “Selective DNA-PKcs inhibition extends the therapeutic index of localized radiotherapy and chemotherapy” (The Journal of Clinical Investigation, 2019).

The experiment has as its target T1, PI4KB (PI4K beta) (Homo sapiens, UniProt Q9UBF8).
T1 construct: purchased Thermo Fisher Scientific (Life Technologies) SelectScreen
Description: SelectScreen Adapta. The class given is biochemical. The gist of the method:
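NU5455 was profiled across the SelectScreen Broad panel of kinase activity and binding assays. Z'LYTE reactions such as CSF1R ran at apparent Km ATP, while the Adapta CAMK1 assay used ATP listed as 10. Values are given as percent.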

Usually inhibition stands for the change of the read-out against control, counted positive when it falls.

T1 sequence (Q9UBF8 whole entry): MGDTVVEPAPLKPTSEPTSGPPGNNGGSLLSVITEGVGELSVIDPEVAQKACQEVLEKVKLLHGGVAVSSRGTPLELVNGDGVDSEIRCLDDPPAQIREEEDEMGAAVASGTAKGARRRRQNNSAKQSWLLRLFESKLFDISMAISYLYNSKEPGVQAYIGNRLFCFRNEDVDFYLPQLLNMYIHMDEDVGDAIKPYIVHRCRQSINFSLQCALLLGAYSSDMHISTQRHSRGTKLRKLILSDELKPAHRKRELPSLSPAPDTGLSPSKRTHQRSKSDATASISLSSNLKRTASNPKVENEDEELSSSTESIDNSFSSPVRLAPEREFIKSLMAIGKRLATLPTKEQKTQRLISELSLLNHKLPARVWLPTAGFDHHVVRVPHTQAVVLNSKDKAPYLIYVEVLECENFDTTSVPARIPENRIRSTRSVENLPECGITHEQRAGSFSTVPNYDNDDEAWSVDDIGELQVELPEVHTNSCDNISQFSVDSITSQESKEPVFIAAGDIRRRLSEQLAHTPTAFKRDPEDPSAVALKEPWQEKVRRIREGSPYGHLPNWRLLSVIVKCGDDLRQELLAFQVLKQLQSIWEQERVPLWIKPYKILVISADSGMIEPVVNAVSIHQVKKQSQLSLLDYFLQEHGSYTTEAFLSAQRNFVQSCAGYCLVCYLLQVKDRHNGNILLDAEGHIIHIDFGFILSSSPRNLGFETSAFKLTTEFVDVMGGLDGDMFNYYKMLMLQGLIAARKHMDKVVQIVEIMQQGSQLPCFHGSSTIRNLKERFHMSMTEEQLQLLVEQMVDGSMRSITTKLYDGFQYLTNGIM

With `CN(C(=O)CN1CCOCC1)c1ccc2sc3c(-c4cccc5c(=O)cc(N6CC7CCC(C6)O7)oc45)cccc3c2c1` [NU5455], the inhibition at 1 µM is -4.7%.
